Source: patent US20260078130A1, “NAMPT MODULATORS, PREPARATIONS, AND USES THEREOF” (SIRONAX LTD., priority 2022, published 2026)
Like-named read-outs stand apart in the source and are kept apart here.

Assays:
[1] = target: T1, human enzyme NAMPT (full length) (Homo sapiens, UniProt P43490); assay: NMN fluorescence biochemical assay (stimulation of NMN synthesis by NAMPT); conditions: for EC50: concentration giving half-maximal activation, read-out: Enzymatic EC50; for Enzymatic Emax: fold change of maximal activation compared to DMSO
T1 construct: human enzyme NAMPT (full length)
T1 sequence (P43490 whole entry): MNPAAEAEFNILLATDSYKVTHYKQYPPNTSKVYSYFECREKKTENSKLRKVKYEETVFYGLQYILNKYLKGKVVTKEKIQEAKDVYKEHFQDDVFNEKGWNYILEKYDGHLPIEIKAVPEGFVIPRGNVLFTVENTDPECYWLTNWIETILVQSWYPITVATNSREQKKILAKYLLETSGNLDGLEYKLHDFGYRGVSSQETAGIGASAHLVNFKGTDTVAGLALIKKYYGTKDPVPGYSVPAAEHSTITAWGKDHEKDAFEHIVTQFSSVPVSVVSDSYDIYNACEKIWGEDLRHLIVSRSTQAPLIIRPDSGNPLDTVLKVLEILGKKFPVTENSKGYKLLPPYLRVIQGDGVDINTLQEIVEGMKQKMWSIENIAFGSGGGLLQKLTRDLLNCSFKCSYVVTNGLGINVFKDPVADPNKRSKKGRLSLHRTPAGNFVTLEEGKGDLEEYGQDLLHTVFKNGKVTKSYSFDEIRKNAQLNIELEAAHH
In short: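 Full-length human NAMPT (100 nM) was preincubated 15 min at 37 °C with compound in 50 mM Tris-HCl pH 7.5, 10 mM MgCl2, 2 mM DTT, then reacted 1 h at 37 °C with 50 μM NAM, 100 μM PRPP, 4 mM ATP (stated solution concentrations). NMN was derivatised with acetophenone/KOH then formic acid and read at Ex/Em 382/445 nm; EC50 and Emax (fold over DMSO) reported.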

[2] = system: endogenous NAMPT in U2OS cells; assay: Cellular NAD+ modulation assay (NAD/NADH-Glo, U2OS cells); type: cell-based; conditions: Homo sapiens; for maximal fold induction: read-out: Cellular Emax
In short: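 NAD/NADH-Glo luminescence quantified NAD+ after acid treatment (60 °C, 15 min) and neutralization of DTAB lysates. Beforehand, U2OS cells seeded 16 h earlier received compound concentration series for 24 h at 37 °C. Values given as half-maximal activation concentration (EC50) and maximal fold change versus DMSO (Emax).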

[3] = NMN fluorescence assay, purified human NAMPT 100 nM
[4] = 24 hours incubation, cellular NAD+
[5] = NMN synthesis by purified human NAMPT (100 nM)
[6] = 24 hours incubation with compound

`COc1ccc(CN2C(=O)c3ccccc3C2Cc2c(C#N)ccnc2C#N)cc1` (centres unmarked) [Compound 590, 3-((2-(4-methoxybenzyl)-3-oxoisoindolin-1-yl)methyl)pyridine-2,4-dicarbonitrile] was tested, and the EC50 [1, 3] was 0.5 to 5 µM, the “Enzymatic Emax” value [1] was “B (3≥B>2)” and the EC50 [2, 4] was 0.5 to 5 µM. It also gave a maximal fold induction [2, 4] of 1.2 to 1.5.

`Cc1cccc(CC2c3ccccc3C(=O)N2Cc2ccc3[nH]c(=O)oc3c2)n1` (centres unmarked) [Compound 158, 6-((1-((6-methylpyridin-2-yl)methyl)-3-oxoisoindolin-2-yl)methyl)benzo[d]oxazol-2(3H)-one] was tested, and the EC50 [1, 5] was no less than 5 µM, the “Enzymatic Emax” value [1] was “A (A>3)” and the EC50 [2, 6] was 0.5 to 5 µM. For the same molecule, the maximal fold induction [2, 6] was greater than 1.5.

In the case of `O=C1NC(=O)C2(CC(CN3C(=O)c4ccccc4C3Cc3ncccc3Br)C2)O1` (centres unmarked) [Compound 476, 2-((1-((3-bromopyridin-2-yl)methyl)-3-oxoisoindolin-2-yl)methyl)-5-oxa-7-azaspiro[3.4]octane-6,8-dione], the EC50 [1, 3] is reported as no less than 5 µM, the “Enzymatic Emax” value [1] is reported as “B (3≥B>2)” and the EC50 [2, 4] is reported as 5 to 50 µM. It also gave a maximal fold induction [2, 4] greater than 1.5.

`COC1CC2(CC(CN3C(=O)c4ccccc4C3Cc3c(Cl)cnn3C)C2)C1` (centres unmarked) [Compound 599, 3-((4-chloro-1-methyl-1H-pyrazol-5-yl)methyl)-2-((6-methoxyspiro[3.3]heptan-2-yl)methyl)isoindolin-1-one] was tested, and the EC50 [1, 3] was no less than 5 µM, the “Enzymatic Emax” value [1] was “C (2≥C)” and the EC50 [2, 4] was 0.5 to 5 µM. It also gave a maximal fold induction [2, 4] of 1.2 to 1.5.

In the case of `Cn1ncc(Cl)c1CC1c2ccccc2C(=O)N1CC1CC1C(N)=O` (centres unmarked) [Compound 582, 2-((1-((4-chloro-1-methyl-1H-pyrazol-5-yl)methyl)-3-oxoisoindolin-2-yl)methyl)cyclopropane-1-carboxamide], the EC50 [1, 3] is reported as no less than 5 µM, the “Enzymatic Emax” value [1] is reported as “C (2≥C)” and the EC50 [2, 4] is reported as 5 to 50 µM. For the same molecule, the maximal fold induction [2, 4] was 1.2 to 1.5.

With `COc1ccc(CN2C(=O)c3c(F)cc(Cl)cc3C2Cc2c(C)ccnc2C#N)cn1` (centres unmarked) [Compound 596, 3-((6-chloro-4-fluoro-2-((6-methoxypyridin-3-yl)methyl)-3-oxoisoindolin-1-yl)methyl)-4-methylpicolinonitrile] the EC50 [1, 3] was 0.5 to 5 µM, the “Enzymatic Emax” value [1] was “B (3≥B>2)” and the EC50 [2, 4] was 0.5 to 5 µM. It also gave a maximal fold induction [2, 4] greater than 1.5.

With `N#Cc1ccnc(C#N)c1CC1c2ccccc2C(=O)N1CC1CC2(CNC(=O)O2)C1` (centres unmarked) [Compound 446, 3-((3-oxo-2-((6-oxo-5-oxa-7-azaspiro[3.4]octan-2-yl)methyl)isoindolin-1-yl)methyl)pyridine-2,4-dicarbonitrile] the EC50 [1, 3] was less than 0.5 µM, the “Enzymatic Emax” value [1] was “B (3≥B>2)” and the EC50 [2, 4] was less than 0.5 µM. It also gave a maximal fold induction [2, 4] greater than 1.5.

For `Cn1ncc(Cl)c1CC1c2cc(C#N)ccc2C(=O)N1CC1CC2(CNC(=O)O2)C1` (centres unmarked) [Compound 464, 3-((4-chloro-1-methyl-1H-pyrazol-5-yl)methyl)-1-oxo-2-((6-oxo-5-oxa-7-azaspiro[3.4]octan-2-yl)methyl)isoindoline-5-carbonitrile], the EC50 [1, 3] was 0.5 to 5 µM, the “Enzymatic Emax” value [1] was “B (3≥B>2)” and the EC50 [2, 4] was 0.5 to 5 µM. It also gave a maximal fold induction [2, 4] greater than 1.5.

With `Cc1nn(C)c(C#N)c1CC1c2ccccc2C(=O)N1Cc1ccc2[nH]nnc2c1` (centres unmarked) [Compound 341, 4-((2-((1H-benzo[d][1,2,3]triazol-5-yl)methyl)-3-oxoisoindolin-1-yl)methyl)-1,3-dimethyl-1H-pyrazole-5-carbonitrile] the EC50 [1, 3] was less than 0.5 µM, the “Enzymatic Emax” value [1] was “A (A>3)” and the EC50 [2, 4] was less than 0.5 µM. The maximal fold induction [2, 4] was greater than 1.5.

In the case of `Cn1nc(C2CC2)c(Cl)c1CC1c2ccccc2C(=O)N1Cc1ccc2[nH]nnc2c1` (centres unmarked) [Compound 399, 2-((1H-benzo[d][1,2,3]triazol-5-yl)methyl)-3-((4-chloro-3-cyclopropyl-1-methyl-1H-pyrazol-5-yl)methyl)isoindolin-1-one], the EC50 [1, 3] is reported as less than 0.5 µM, the “Enzymatic Emax” value [1] is reported as “B (3≥B>2)” and the EC50 [2, 4] is reported as less than 0.5 µM. It also gave a maximal fold induction [2, 4] greater than 1.5.

`CC1(C)c2ccccc2C(=O)N1Cc1ccc2[nH]c(=O)oc2c1` [Compound 52, 6-((1,1-dimethyl-3-oxoisoindolin-2-yl)methyl) benzo[d]oxazol-2(3H)-one] was tested, and the EC50 [1, 5] was no less than 5 µM, the “Enzymatic Emax” value [1] was “B (3≥B>2)” and the EC50 [2, 6] was 0.5 to 5 µM. It also gave a maximal fold induction [2, 6] greater than 1.5.

With `O=C1c2ccc(Br)cc2CN1Cc1ccc(O)cc1` [Compound 20, 5-bromo-2-(4-hydroxybenzyl) isoindolin-1-one] the EC50 [1, 5] was 0.5 to 5 µM, the “Enzymatic Emax” value [1] was “A (A>3)” and the EC50 [2, 6] was 0.5 to 5 µM. The maximal fold induction [2, 6] was greater than 1.5.

`Cn1ncc(Cl)c1CC1c2cccc(F)c2C(=O)N1CC1CC2(CNC(=O)O2)C1` (centres unmarked) [Compound 309, 2-((1-((4-chloro-1-methyl-1H-pyrazol-5-yl)methyl)-4-fluoro-3-oxoisoindolin-2-yl)methyl)-5-oxa-7-azaspiro[3.4]octan-6-one] was tested, and the EC50 [1, 5] was less than 0.5 µM, the “Enzymatic Emax” value [1] was “B (3≥B>2)” and the EC50 [2, 6] was less than 0.5 µM. It also gave a maximal fold induction [2, 6] greater than 1.5.

With `N#Cc1ccccc1CC1c2ccccc2C(=O)N1Cc1ccc2[nH]c(=O)oc2c1` (centres unmarked) [Compound 147, 2-((3-oxo-2-((2-oxo-2,3-dihydrobenzo[d]oxazol-6-yl)methyl)isoindolin-1-yl)methyl) benzonitrile] the EC50 [1, 5] was less than 0.5 µM, the “Enzymatic Emax” value [1] was “A (A>3)” and the EC50 [2, 6] was less than 0.5 µM. The maximal fold induction [2, 6] was greater than 1.5.

`O=c1[nH]c2ccc(Cn3c(=O)c4ccccc4n3Cc3ccccc3C(F)(F)F)cc2o1` [Compound 141, 6-((3-oxo-1-(2-(trifluoromethyl)benzyl)-1,3-dihydro-2H-indazol-2-yl)methyl)benzo[d]oxazol-2(3H)-one] was tested, and the EC50 [1, 5] was 0.5 to 5 µM, the “Enzymatic Emax” value [1] was “B (3≥B>2)” and the EC50 [2, 6] was 0.5 to 5 µM. For the same molecule, the maximal fold induction [2, 6] was greater than 1.5.

`Cc1ccccc1CC1c2cccnc2C(=O)N1Cc1ccc2[nH]c(=O)oc2c1` (centres unmarked) [Compound 160, 6-((5-(2-methylbenzyl)-7-oxo-5,7-dihydro-6H-pyrrolo[3,4-b]pyridin-6-yl)methyl)benzo[d]oxazol-2(3H)-one] was tested, and the EC50 [1, 5] was 0.5 to 5 µM, the “Enzymatic Emax” value [1] was “B (3≥B>2)” and the EC50 [2, 6] was 0.5 to 5 µM. It also gave a maximal fold induction [2, 6] greater than 1.5.

For `CC1c2ccccc2C(=O)N1Cc1cc(F)c2[nH]c(=O)oc2c1` (centres unmarked) [Compound 89, 4-fluoro-6-((1-methyl-3-oxoisoindolin-2-yl)methyl)benzo[d]oxazol-2(3H)-one], the EC50 [1, 5] was no less than 5 µM, the “Enzymatic Emax” value [1] was “B (3≥B>2)” and the EC50 [2, 6] was 5 to 50 µM. For the same molecule, the maximal fold induction [2, 6] was 1.2 to 1.5.

For `Cn1ncc(Cl)c1CC1c2cc(CN3CC4(COC4)C3)ccc2C(=O)N1CC1CC2(CNC(=O)O2)C1` (centres unmarked) [Compound 512, 2-((5-((2-oxa-6-azaspiro[3.3]heptan-6-yl)methyl)-3-((4-chloro-1-methyl-1H-pyrazol-5-yl)methyl)-1-oxoisoindolin-2-yl)methyl)-5-oxa-7-azaspiro[3.4]octan-6-one], the EC50 [1, 3] was 0.5 to 5 µM, the “Enzymatic Emax” value [1] was “B (3≥B>2)” and the EC50 [2, 4] was 0.5 to 5 µM. It also gave a maximal fold induction [2, 4] greater than 1.5.

`COc1ccc(CN2C(=O)c3ccc(Cl)cc3C2Cc2c(C)ncnc2C#N)cn1` (centres unmarked) [Compound 639, 5-((6-chloro-2-((6-methoxypyridin-3-yl)methyl)-3-oxoisoindolin-1-yl)methyl)-6-methylpyrimidine-4-carbonitrile] was tested, and the EC50 [1, 3] was no less than 5 µM, the “Enzymatic Emax” value [1] was “B (3≥B>2)” and the EC50 [2, 4] was 0.5 to 5 µM. The maximal fold induction [2, 4] was 1.2 to 1.5.

With `Cc1c(CN2C(=O)c3ccccc3C2Cc2ncccc2Br)ccc2[nH]c(=O)oc12` (centres unmarked) [Compound 349, 6-((1-((3-bromopyridin-2-yl)methyl)-3-oxoisoindolin-2-yl)methyl)-7-methylbenzo[d]oxazol-2(3H)-one] the EC50 [1, 3] was 0.5 to 5 µM, the “Enzymatic Emax” value [1] was “A (A>3)” and the EC50 [2, 4] was 5 to 50 µM. For the same molecule, the maximal fold induction [2, 4] was greater than 1.5.
